Measured values: US9321718B2 (CHROMA THERAPEUTICS LTD., priority 2010, dated 2016)
Where two headings read alike, the source gives them in different places.

Experiments:
[1] = molecular target: T1, human recombinant his-tagged HSP90α (Homo sapiens, UniProt P07900); experiment: HSP90 enzyme assay (HTRF, competition with biotinylated Geldanamycin); format: binding; conditions: IC50 range; read-out: Enzyme Assay
T1 construct: purchased Prospec Technogene #HSP90
Excerpt: An HTRF (homogeneous time resolved fluorescence) assay is used to measure the interaction of the compounds with HSP90. The assay measures binding of biotinylated Geldanamycin (bio-GM; Biomol, #EI-341, lot: A9199a) to human recombinant his-tagged HSP90α (HSP90; Prospec Technogene, #HSP90, lot: 260HSP9001). A signal is generated by fluorescence resonance energy transfer from an Europium-cryptate labeled anti-his antibody (anti-his-K; Cisbio International, #61HISKLA, lot: 33V) via the HSP90-GM-biotin complex to a fluorescence acceptor (allophycocyanin) linked to streptavidin (SA-XL; Cisbio International, #610SAXLB, lot: 089).
Unlabeled GM or compounds compete with the bio-GM for binding to HSP90 resulting in reduced fluorescence energy transfer/assay signal.
A preformed (1 hour incubation) complex of HSP90 with the anti-his-K is added to the compound solution in a 384 well microplate (Corning, #3710) and incubated for 15 minutes. A preformed (1 hour incubation) complex of bio-GM with the SA-XL is added to the wells and incubated for 20 hours. All incubations are performed at room temperature. The final assay volume is 50 μl/well. The final concentrations in the assay are: 50 mM Hepes pH 7.3, 50 mM NaCl, 100 mM KF, 1 mM EDTA, 1 mM DTT, 0.1% Triton-X-100, […] HSP90, 40 nM SA-XL, 40 nM bio-GM. Test compounds are dissolved in DMSO, prediluted in assay buffer and tested at a final concentration between 5000 nM and 0.3 nM. The resulting DMSO concentration is 0.5% and included in all controls. High controls are without test compounds, low controls without test compounds, without HSP90 and without bio-GM. As a reference inhibitor unlabeled GM is used in the same concentrations as the test compounds.
Inhibition is calculated compared to the assay controls using an Excel spreadsheet (Microsoft). IC50 values are calculated by non-linear least squares fitting to the standard dose-response model using GraphPad Prism (GraphPad Software Inc).

[2] = test system: TNFα release from LPS stimulated THP-1 (hCE-1 +ve) cells; experiment: LPS-stimulation of THP-1 cells (TNF-α release); format: cell-based, human; conditions: IC50 range, TNF-α after LPS 1 μg/ml, 6 hours, read-out: THP-1 Assay
Procedure: THP-1 cells are plated in […] at a density of 4×10^4 cells/well in V-bottomed 96 well tissue culture treated plates and incubated at 37° C. in 5% CO2 for 16 hours. 2 Hours after the addition of the inhibitor in 100 μl of tissue culture media, the cells are stimulated with LPS (E. Coli strain 005:B5, Sigma) at a final concentration of 1 μg/ml and incubated at 37° C. in 5% CO2 for 6 hours. TNF-α levels are measured from cell-free supernatants by sandwich ELISA (R&D Systems #QTA00B).

IC50 [1] [nM] | IC50 ([2]; Homo sapiens, THP-1) [nM] | IC50 [2] [nM] | Molecule
< 100 | > 1000 | – | CC(C)c1cc(C(=O)N2CCC(N[C@@H](C)C(=O)OC(C)(C)C)CC2)c(O)cc1O [Example 8, tert-butyl N-(1-{[2,4-dihydroxy-5-(propan-2-yl)phenyl]carbonyl}piperidin-4-yl)-L-alaninate]
< 100 | > 1000 | – | CC(C)C[C@@H](NC1CCN(C(=O)c2cc(C(C)C)c(O)cc2O)CC1)C(=O)OC(C)(C)C [Example 19, tert-butyl N-(1-{[2,4-dihydroxy-5-(propan-2-yl)phenyl]carbonyl}piperidin-4-yl)-D-leucinate]
< 100 | 100 to 1000 | – | CC(C)c1cc(C(=O)N2CCC(CCN[C@@H](CO)C(=O)OC3CCCC3)CC2)c(O)cc1O [Example 47, cyclopentyl N-[2-(1-{[2,4-dihydroxy-5-(propan-2-yl)phenyl]carbonyl}piperidin-4-yl)ethyl]-L-serinate]
< 100 | < 100 | – | CC(C)c1cc(C(=O)N2CCC(CCN[C@@H](C)C(=O)OC3CCCC3)CC2)c(O)cc1O [Example 39, cyclopentyl N-[2-(1-{[2,4-dihydroxy-5-(propan-2-yl)phenyl]carbonyl}piperidin-4-yl)ethyl]-L-alaninate]
100 to 1000 | > 1000 | – | CC(C)c1cc(C(=O)N2CCC(CCN[C@H](C(=O)OC3CCCC3)C3CCCCC3)CC2)c(O)cc1O [Example 48, cyclopentyl (2S)-cyclohexyl{[2-(1-{[2,4-dihydroxy-5-(propan-2-yl)phenyl]carbonyl}piperidin-4-yl)ethyl]amino}ethanoate]
100 to 1000 | > 1000 | – | CC(C)c1cc(C(=O)N2CCC(CN[C@H](C(=O)OC3CCCC3)C3CCCCC3)CC2)c(O)cc1O [Example 30, cyclopentyl (2S)-cyclohexyl{[(1-{[2,4-dihydroxy-5-(propan-2-yl)phenyl]carbonyl}piperidin-4-yl)methyl]amino}ethanoate]
< 100 | > 1000 | – | CC(C)C[C@H](NC1CCN(C(=O)c2cc(C(C)C)c(O)cc2O)CC1)C(=O)OC(C)(C)C [Example 6, tert-butyl N-(1-{[2,4-dihydroxy-5-(propan-2-yl)phenyl]carbonyl}piperidin-4-yl)-L-leucinate]
< 100 | > 1000 | – | CC(C)C[C@H](NCCCNCC1CCN(C(=O)c2cc(C(C)C)c(O)cc2O)CC1)C(=O)OC1CCCC1 [Example 126]
< 100 | > 1000 | – | CC(C)c1cc(C(=O)N2CCC(CN[C@@H](COC(C)(C)C)C(=O)OC(C)(C)C)CC2)c(O)cc1O [Example 35, tert-butyl O-tert-butyl-N-[(1-{[2,4-dihydroxy-5-(propan-2-yl)phenyl]carbonyl}piperidin-4-yl)methyl]-L-serinate]
< 100 | 100 to 1000 | – | CC(C)c1cc(C(=O)N2CCC(N[C@@H](CO)C(=O)OC3CCCC3)CC2)c(O)cc1O [Example 18, cyclopentyl N-(1-{[2,4-dihydroxy-5-(propan-2-yl)phenyl]carbonyl}piperidin-4-yl)-L-serinate]
< 100 | – | > 1000 | cyclopentyl N-[(1-{[2,4-dihydroxy-5-(propan-2-yl)phenyl]carbonyl}piperidin-4-yl)methyl]-L-valinate [Example 29]
< 100 | > 1000 | – | CC(C)C[C@@H](NCC1CCN(C(=O)c2cc(C(C)C)c(O)cc2O)CC1)C(=O)OC(C)(C)C [Example 27, tert-butyl N-[(1-{[2,4-dihydroxy-5-(propan-2-yl)phenyl]carbonyl}piperidin-4-yl)methyl]-D-leucinate]
< 100 | > 1000 | – | CC(C)c1cc(C(=O)N2CCC(N[C@@H](Cc3ccccc3)C(=O)OC(C)(C)C)CC2)c(O)cc1O [Example 16, tert-butyl N-(1-{[2,4-dihydroxy-5-(propan-2-yl)phenyl]carbonyl}piperidin-4-yl)-L-phenylalaninate]
100 to 1000 | > 1000 | – | CC(C)C[C@H](NC1CCCN(C(=O)c2cc(C(C)C)c(O)cc2O)C1)C(=O)OC1CCCC1 (stereo partly drawn) [Example 7, cyclopentyl N-(1-{[2,4-dihydroxy-5-(propan-2-yl)phenyl]carbonyl}piperidin-3-yl)-L-leucinate]
100 to 1000 | > 1000 | – | CC(C)c1cc(C(=O)N2CCC(N[C@H](C(=O)OC3CCCC3)C3CCCCC3)CC2)c(O)cc1O [Example 14, cyclopentyl (2S)-cyclohexyl[(1-{[2,4-dihydroxy-5-(propan-2-yl)phenyl]carbonyl}piperidin-4-yl)amino]ethanoate]
< 100 | 100 to 1000 | – | CC(C)C[C@H](NCCC1CCN(C(=O)c2cc(C(C)C)c(O)cc2O)CC1)C(=O)OC(C)(C)C [Example 42, tert-butyl N-[2-(1-{[2,4-dihydroxy-5-(propan-2-yl)phenyl]carbonyl}piperidin-4-yl)ethyl]-L-leucinate]
< 100 | 100 to 1000 | – | CC(C)c1cc(C(=O)N2CCC(CN[C@@H](CO)C(=O)OC(C)(C)C)CC2)c(O)cc1O [Example 37, tert-butyl N-[(1-{[2,4-dihydroxy-5-(propan-2-yl)phenyl]carbonyl}piperidin-4-yl)methyl]-L-serinate]
< 100 | > 1000 | – | CC(C)c1cc(C(=O)N2CCC(CN[C@@H](Cc3ccccc3)C(=O)OC(C)(C)C)CC2)c(O)cc1O [Example 25, tert-butyl N-[(1-{[2,4-dihydroxy-5-(propan-2-yl)phenyl]carbonyl}piperidin-4-yl)methyl]-L-phenylalaninate]
< 100 | > 1000 | – | CC(C)C[C@@H](NC1CCN(C(=O)c2cc(C(C)C)c(O)cc2O)CC1)C(=O)OC1CCCC1 [Example 12, cyclopentyl N-(1-{[2,4-dihydroxy-5-(propan-2-yl)phenyl]carbonyl}piperidin-4-yl)-D-leucinate]
< 100 | > 1000 | – | CC(C)c1cc(C(=O)N2CCC(CCN[C@H](C(=O)OC3CCCC3)C(C)C)CC2)c(O)cc1O [Example 46, cyclopentyl N-[2-(1-{[2,4-dihydroxy-5-(propan-2-yl)phenyl]carbonyl}piperidin-4-yl)ethyl]-L-valinate]
< 100 | > 1000 | – | CC(C)C[C@H](NCC1CCN(C(=O)c2cc(C(C)C)c(O)cc2O)CC1)C(=O)OC(C)(C)C [Example 24, tert-butyl N-[(1-{[2,4-dihydroxy-5-(propan-2-yl)phenyl]carbonyl}piperidin-4-yl)methyl]-L-leucinate]
< 100 | > 1000 | – | CC(C)c1cc(C(=O)N2CCC(N[C@@H](COC(C)(C)C)C(=O)OC(C)(C)C)CC2)c(O)cc1O [Example 11, tert-butyl O-tert-butyl-N-(1-{[2,4-dihydroxy-5-(propan-2-yl)phenyl]carbonyl}piperidin-4-yl)-L-serinate]
